# Measurements from the supplement of paper PMC10307832.
# Experiments:
# Test in all cases: relative viability (nuclei count vs DMSO), 5 days (fraction); higher = more cells survive
# [1] = compound: CNC(=O)c1cc(Oc2ccc(NC(=O)Nc3ccc(Cl)c(C(F)(F)F)c3)cc2)ccn1 [Sorafenib] + N=C(N)NC(=N)NCCc1ccccc1 [Phenformin] (partner 250 µM)
# Outline: (§1)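 Relative viability was taken as the ratio of nuclei in treated wells to nuclei in vehicle wells. Lung cancer cell lines in 1536-well plates received compounds by pin tool one day after seeding, either one drug alone or a fixed anchor-drug dose plus five library-drug doses (not always all listed) in √10 steps. Nuclei were counted on 4× images after 5 days of treatment, and values are medians of duplicate plates.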
# [2] = compound: CNC(=O)c1cc(Oc2ccc(NC(=O)Nc3ccc(Cl)c(C(F)(F)F)c3)cc2)ccn1 [Sorafenib] + O=C(CCCCCCC(=O)Nc1ccccc1)NO [Vorinostat] (partner 1 µM)
# Outline: as §1
# [3] = compound: CNC(=O)c1cc(Oc2ccc(NC(=O)Nc3ccc(Cl)c(C(F)(F)F)c3)cc2)ccn1 [Sorafenib] + Cc1nc(Nc2ncc(C(=O)Nc3c(C)cccc3Cl)s2)cc(N2CCN(CCO)CC2)n1 [Dasatinib] (partner 0.075 µM)
# Outline: as §1
# [4] = compound: CNC(=O)c1cc(Oc2ccc(NC(=O)Nc3ccc(Cl)c(C(F)(F)F)c3)cc2)ccn1 [Sorafenib] + C[C@@H](Oc1cc(-c2cnn(C3CCNCC3)c2)cnc1N)c1c(Cl)ccc(F)c1Cl [Crizotinib] (partner 1 µM)
# Outline: as §1
# [5] = compound: CNC(=O)c1cc(Oc2ccc(NC(=O)Nc3ccc(Cl)c(C(F)(F)F)c3)cc2)ccn1 [Sorafenib] + CS(=O)(=O)N1CCN(Cc2cc3nc(-c4cccc5[nH]ncc45)nc(N4CCOCC4)c3s2)CC1 [Pictilisib] (partner 1 µM)
# Outline: as §1
Cell Line,relative viability ([1]; first compound 0.253 µM),relative viability ([1]; first compound 2.53 µM),relative viability ([1]; first compound 8 µM),relative viability ([2]; first compound 0.08 µM),relative viability ([2]; first compound 0.253 µM),relative viability ([2]; first compound 2.53 µM),relative viability ([2]; first compound 8 µM),relative viability ([3]; first compound 0.08 µM),relative viability ([3]; first compound 0.253 µM),relative viability ([3]; first compound 2.53 µM),relative viability ([3]; first compound 8 µM),relative viability ([4]; first compound 0.08 µM),relative viability ([4]; first compound 0.253 µM),relative viability ([4]; first compound 2.53 µM),relative viability ([4]; first compound 8 µM),relative viability ([5]; first compound 0.08 µM),relative viability ([5]; first compound 0.253 µM),relative viability ([5]; first compound 2.53 µM),relative viability ([5]; first compound 8 µM),relative viability ([1]; first compound 0.08 µM)
201T,0.423,0.42,0.432,1.01,0.946,0.963,0.926,0.584,0.578,0.596,0.458,1.03,1.01,1.13,1.08,0.684,0.669,0.72,0.65,–
A-427,0.389,0.333,0.115,0.84,0.894,0.914,1.01,0.75,0.671,–,0.31,0.895,0.855,0.826,0.369,0.771,0.669,0.768,0.376,0.444
ABC-1,0.234,0.247,0.233,1.23,0.811,1.22,0.482,0.625,0.493,0.619,0.351,1.4,1.07,–,1.04,0.78,0.713,1.02,0.332,0.218
BEN,0.254,0.239,0.205,0.567,0.621,0.685,0.593,0.342,0.255,0.381,0.309,1,0.844,0.862,0.68,0.649,0.512,0.531,0.413,0.278
CAL-12T,0.54,0.583,0.202,0.723,0.722,0.72,0.494,0.658,–,0.415,0.114,0.751,0.581,0.524,0.381,0.6,0.396,0.575,0.396,0.641
COR-L23,0.419,0.455,0.287,0.512,0.413,0.478,0.32,0.55,0.495,0.514,0.235,0.902,0.609,0.657,0.551,0.952,0.881,0.745,0.676,0.44
COR-L 105,0.458,0.561,0.441,1.01,0.696,0.946,0.551,0.475,0.31,–,0.356,0.874,0.73,0.839,0.855,0.413,0.487,0.476,0.329,0.534
ChaGo-K-1,0.405,0.469,0.299,0.737,0.689,0.775,0.557,0.649,0.505,0.577,0.455,1.22,1.09,1.07,–,0.939,0.592,0.794,0.399,0.552
EKVX,0.24,0.24,0.201,0.718,0.723,0.832,0.803,0.628,0.449,0.376,0.349,0.96,0.846,0.917,0.877,0.529,0.463,0.434,0.393,0.243
EMC-BAC-2,0.464,0.507,0.316,0.481,–,0.546,0.479,0.301,0.268,0.354,0.299,0.648,0.728,0.762,0.809,0.54,0.6,0.549,0.472,0.504
EPLC-272H,0.264,0.294,0.315,0.524,0.436,0.429,0.388,0.479,0.341,0.402,0.254,–,0.819,–,0.855,0.393,0.286,0.45,0.299,0.402
H3255,0.357,0.406,–,–,0.722,0.723,0.618,0.497,0.344,0.345,0.201,1.06,0.809,0.799,0.62,0.525,0.434,0.521,0.305,1.02
HARA,0.456,0.41,0.307,0.517,0.6,0.512,0.569,0.296,0.197,0.248,0.229,1.15,1.02,1.03,0.931,0.373,0.341,0.411,0.327,0.498
HCC-15,0.403,0.442,0.212,0.973,0.764,0.83,0.576,0.697,0.68,0.774,0.417,0.836,0.774,0.813,0.566,0.729,0.683,–,0.602,0.501
HCC-44,0.153,0.311,0.207,1.03,1.05,1.09,1.16,–,–,–,–,0.811,0.735,0.725,0.565,0.628,0.693,0.673,0.549,0.269
HCC-78,0.598,–,0.713,0.459,0.331,0.532,0.496,0.46,0.393,0.549,0.397,0.394,0.361,0.483,0.507,0.254,0.229,0.268,0.217,0.812
HCC-366,0.507,0.539,0.559,0.315,0.343,0.256,0.22,0.626,0.551,0.639,0.518,0.705,0.464,0.549,0.356,0.208,0.118,0.138,0.151,0.598
HCC-827,0.399,0.447,0.424,0.837,0.572,0.844,0.667,0.38,0.435,0.299,0.327,–,0.918,0.94,0.853,1.19,0.897,0.861,0.727,0.447

Cell Line,relative viability ([1]; first compound 0.253 µM),relative viability ([1]; first compound 2.53 µM),relative viability ([1]; first compound 8 µM),relative viability ([2]; first compound 0.08 µM),relative viability ([2]; first compound 0.253 µM),relative viability ([2]; first compound 2.53 µM),relative viability ([2]; first compound 8 µM),relative viability ([3]; first compound 0.08 µM),relative viability ([3]; first compound 0.253 µM),relative viability ([3]; first compound 2.53 µM),relative viability ([3]; first compound 8 µM),relative viability ([4]; first compound 0.08 µM),relative viability ([4]; first compound 0.253 µM),relative viability ([4]; first compound 2.53 µM),relative viability ([4]; first compound 8 µM),relative viability ([5]; first compound 0.08 µM),relative viability ([5]; first compound 0.253 µM),relative viability ([5]; first compound 2.53 µM),relative viability ([5]; first compound 8 µM),relative viability ([1]; first compound 0.08 µM)
HOP-62,0.558,0.54,0.369,0.736,0.363,0.368,0.276,0.796,0.527,0.584,0.59,1.01,0.901,0.84,0.57,0.685,0.632,0.619,0.68,0.682
IA-LM,–,–,–,–,0.647,0.436,0.508,–,–,–,–,0.573,0.623,0.494,0.4,0.451,0.37,0.311,0.212,–
LC-2-ad,0.495,0.613,0.453,0.723,0.674,0.617,0.514,0.721,0.376,0.427,0.33,0.496,0.447,0.511,0.421,0.432,0.369,0.32,0.193,0.595
LCLC-97TM1,0.377,0.325,0.356,0.68,0.674,0.65,0.576,0.984,0.841,0.683,0.676,0.326,0.358,0.364,0.121,0.152,0.207,0.211,0.16,0.413
LCLC-103H,0.309,0.336,0.344,0.813,0.75,0.778,0.737,0.617,0.424,0.44,0.497,1.12,1.14,1.28,1.13,0.689,0.581,0.698,0.758,0.401
LK-2,0.274,0.38,0.0899,0.371,0.298,0.143,0.148,0.259,0.267,0.341,0.263,0.208,–,0.263,0.256,0.588,–,0.722,0.374,0.562
LOU-NH91,0.678,0.73,0.489,1.03,0.881,1.11,0.493,0.692,0.52,0.686,0.361,0.841,0.751,0.844,0.654,0.557,0.543,0.585,0.491,0.784
LU99A,0.864,0.748,0.408,0.487,0.445,0.437,0.192,0.512,0.504,0.608,0.351,0.541,0.547,0.6,0.543,0.308,0.3,0.347,0.325,0.978
LXF-289,0.513,0.541,0.476,0.758,0.757,0.848,0.681,0.292,0.205,0.187,0.196,0.816,0.814,0.824,0.757,0.834,0.727,0.828,0.779,0.553
NCI-H23,–,0.726,0.74,0.635,0.384,0.678,0.547,0.804,0.691,0.646,0.709,0.566,0.427,0.689,0.427,0.474,0.445,0.39,0.362,0.829
NCI-H322M,0.67,0.807,0.795,1.02,0.886,1.02,1.17,0.261,0.259,0.319,0.302,0.945,0.848,0.894,0.859,–,0.593,0.62,0.695,0.813
NCI-H1395,0.407,0.453,0.392,0.872,–,1.06,0.748,0.454,0.371,0.423,0.329,–,–,–,–,0.603,0.636,0.642,0.39,0.51
NCI-H1563,0.643,0.749,0.532,–,–,–,–,0.496,0.469,0.478,0.454,0.893,0.993,0.889,0.674,0.653,0.523,0.614,0.665,0.709
NCI-H1703,–,–,–,–,–,–,–,–,–,–,–,0.588,0.209,0.141,0.157,0.243,0.21,0.197,0.177,–
NCI-H1792,0.309,0.234,0.181,–,–,–,–,0.825,0.742,0.863,0.554,1.05,0.973,1,0.87,0.34,0.23,0.278,0.39,0.199
NCI-H1793,0.329,0.418,0.293,0.783,0.739,1.05,0.578,0.411,0.356,0.379,0.406,–,–,–,–,0.313,0.333,0.256,0.195,0.453
SW 900,0.602,0.461,0.22,0.71,0.398,0.72,0.618,0.544,0.481,0.545,0.343,–,–,–,–,–,–,–,–,0.871
